Measurements published in patent US20070248646A1, “Use of azurocidin inhibitors in prevention and treatment of ocular vascular leakage” (priority 2006, published 2007).

Experiments:
[1] = tested on: retinal vascular leakage in diabetic retinopathy; assay: Retinal vascular leakage in streptozotocin-induced diabetic retinopathy; type: in vivo, Long-Evans rats; settings: two weeks after streptozotocin-induced diabetes; aprotinin 50,000 KIU, systemic
Procedure: After an overnight fast, Long-Evans rats (Charles River, Wilmington, Mass.), weighing 200-250 g, received single 60 mg/kg intraperitoneal injections of streptozotocin (Sigma, St. Louis, Mo.) in 10 mM citrate buffer (pH 4.5). Control nondiabetic animals received citrate buffer alone. Animals with blood glucose levels greater than 250 mg/dl 24 hours after the streptozotocin injections were considered diabetic. The rats were fed standard laboratory chow and allowed free access to water. Before each experiment, the diabetic state was reconfirmed to be 250 mg/dl or higher.
Asterisks indicate statistical significance.

[2] = target: T1, human neutrophil azurocidin (Homo sapiens, UniProt P20160); assay: Suppression of azurocidin-induced BRB breakdown (Evans Blue); type: in vivo, Brown Norway rats
T1 construct: purchased Athens Research and Biotechology, Atlanta, Ga
T1 sequence (P20160 27-248): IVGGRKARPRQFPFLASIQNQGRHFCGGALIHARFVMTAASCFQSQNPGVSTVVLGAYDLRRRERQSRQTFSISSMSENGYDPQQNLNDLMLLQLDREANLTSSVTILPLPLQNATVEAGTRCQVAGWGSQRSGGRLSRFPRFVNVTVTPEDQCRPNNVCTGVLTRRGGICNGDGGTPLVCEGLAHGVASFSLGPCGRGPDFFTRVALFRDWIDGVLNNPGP
Procedure: This study employed Brown Norway rats, AZ (1 μg, 10 μg, 20 μg), PBS, aprotinin, VEGF164, and polyclonal anti-AZ antibody (1 μg). Briefly, Brown Norway rats received intravitreal injections of AZ (1 μg, 10 μg and 20 μg) in one eye and PBS in the contralateral eye. BRB breakdown was quantified using the Evans Blue (EB) technique at 1 hour, 3 hours, and 24 hours after intravitreal injection of AZ or PBS. To assess whether AZ induced retinal leukostasis, firm leukocyte adhesion was quantified at 3 hours and 24 hours post AZ injection (10 μg) using the ex vivo conconavalin leukostasis assay. To block AZ, rats were treated with a single intravenous injection of aprotinin (30,000KIU), prior to the intravitreal injections. To investigate whether AZ was involved in VEGF-induced BRB breakdown, rats received intravitreal injections of 50 ng recombinant mouse VEGF164 in one eye and PBS in the other eye and were treated intravenously with aprotinin (50,000KIU every eight hours) or polyclonal anti-AZ antibody (1 μg). BRB breakdown and retinal leukostasis were quantified 24 hours after VEGF injection.
In a second group, the rats were additionally treated intravenously with the azurocidin inhibitor, aprotinin (Trasylol®, Bayer Pharmaceuticals). […] The retinas were analyzed one hour after azurocidin administration using the Evans Blue technique.
Retinal vascular permeability was quantified as previously described (Qaum et al. (2002) supra, Xu et al. (2001) INVEST. OPHTHALMOL. VIS. SCI. 42; 789-94). […] The background-subtracted absorbance was determined by measuring each sample at 620 nm (the absorbance maximum for Evans blue dye in formamide) and 740 nm (the absorbance minimum) with a spectrophotometer. The concentration of dye in the plasma was calculated from a standard curve of Evans blue dye in formamide. […] The background-subtracted absorbance was determined by measuring each sample at 620 nm (the absorbance maximum for Evans blue dye in formamide) and 740 nm (the absorbance minimum). The concentration of dye in the extracts was calculated from a standard curve of Evans blue dye in formamide. […]

[3] = tested on: retinal leukostasis in EIU; assay: Retinal leukostasis in Endotoxin-Induced-Uveitis (ConA staining); type: in vivo, Lewis rats; settings: 24 hours post EIU induction; aprotinin 50,000KIU at 0, 8, 16 hours; EIU 106.6±6.5, normal 17±1.2; n=6
Procedure: EIU was induced in Lewis rats via footpad injection of 100 μl (1 mg/ml) lipopolysaccharide (LPS). Control animals received an equal volume of saline. The experiments were conducted 24 hours after LPS injection. At this time point, several experimental parameters were assessed.
To block AZ, animals received 5 ml of aprotinin (Trasylol®; 50,000KIU). The first injection was given at the same time as the footpad injection, followed by a second injection 8 hours later and a third injection 16 hours later. The control animals received and equal amounts of vehicle control. LPS was purchased in lyophilized form from Sigma (#L6511).
Under deep anesthesia, a rat's chest cavity was opened, and its left ventricle was cannulated to allow perfusion (Ishida (2003) supra). The rat's right atrium was opened to achieve outflow. […] The eyes were enucleated, and the retinas were dissected and flatmounted in a water-based fluorescence anti-fading medium (Fluoromount; Southern Biotechnology, Birmingham, Ala.) and imaged by fluorescence microscopy (Leica, FITC filter). […] Leukocytes in arteries, veins, and capillaries of each retinal tissue were counted, and the total number of adherent leukocytes per retina was calculated. […]

block of AZ-induced leakage ([2]; single i.v. 30,000KIU 1 hour before intravitreal azurocidin 20 μg, Evans Blue 1 hour later): greater than 98%
Evans Blue retinal leakage in AZ-injected eyes ([2]; single i.v. 30,000KIU 1 hour before intravitreal azurocidin, AZ alone 45±17): 6±0.64 μl plasma/g retina/h
Substance: aprotinin
vascular leakage (normalized BRB leakage) [1]: comparable to that of normal animals
basal levels of retinal vascular leakage ([2]; aprotinin treatment alone (PBS-injected eye)): did not affect basal levels of retinal vascular leakage
retinal leukostasis (firmly adhering leukocytes per retina) [3]: 32.4±2.9 cells
